Results: US20210093531A1, “DERIVATIVES OF MENTHOL AND USES THEREOF” (Board of Trustees of Northern Illinois University, priority 2019, published 2021)
Entries after “also recorded” stand apart in the source; their conditions may differ. Marks after values point to notes of the source that are not given here.

Assays:
[1] = organoleptic evaluation in ethanol, propylene glycol and water; assay type: in vivo; settings: for organoleptic properties, EtOH / organoleptic properties, PG / organoleptic properties (entry names no solvent): 100 ppm; for organoleptic properties, EtOH: ethanol cut in aqueous solution; for organoleptic properties, PG: propylene glycol cut in aqueous solution; for organoleptic properties (entry names no solvent): entry without solvent suffix
Protocol: Stock solutions for each solution was prepared as described below to afinal concentration of 100 ppm.
c. Mix well to achieve final concentration of 100 ppm.
a. Prepare a stock solution of 2.5% solution in PG by adding 25 mg of menthol analog in 1 gram of PG (mix well).
Organoleptic properties by compound are listed below for menthol derivatives in ethanol, propylene glycol, and water: […]

trained panelists = assay: time-intensity analysis of cooling, mouthwash application; assay type: in vivo; settings: for Iext (cooling intensity at end of evaluation): 15 minutes after expectoration
Protocol: In order to evaluate the potential use of menthol glycinates as […] different food, beverage and oral hygiene products, select compounds were incorporated in different application systems. A beverage model system, a lozenge and a mouthwash application were created, and time-intensity analysis was performed using trained discrimination analysis panelists. Time-Intensity (TI) is a temporal sensory method. During TI evaluations, assessors are asked to score the intensity of perception of a single attribute over consumption of the product. Compared to single point measurements, TI analysis can characterize the onset, decline and rates thereof, of particular sensory characteristics. This analysis may reveal rich information regarding the intensity of an attribute over the time domain and identify temporal perceptual differences among samples that can greatly impact the overall profile of a product. For each sample evaluation, a temporal curve is generated, based on duplication. The temporal curves for each panelist are combined to generate a combined curve for each product that is evaluated. The following distinct parameters were calculated: Imax: peak intensity or maximum observed intensity on the whole curve; […]: time point where the reaction to the stimulus is first perceived on the curve; Tmax: time position of the peak intensity on the curve; Tplateau: protraction of maximum intensity or duration of maximum intensity; Text: time point of extinction of the perception of the stimulus, defined as the position in time after the peak intensity where the measured intensity disappears (or the end of evaluation window); Iext: intensity at time of extinction or end of evaluation; R increase: slope or rate of intensity increase between […] and Tmax; R decrease: slope or rate of intensity decrease between Tmax and Text; and Area: the total area under the time-intensity curve. The formula shown in Table 8 was employed to create a mouthwash product to evaluate […] of interest using time-Intensity analysis. [table] The following test compounds were evaluated: menthol, XI-I-60, RK-2-10, XI-I-65, DK-1-50, and XI-2-73. For time-intensity (T-I) evaluation of the cooling attributes of mouthwash products, 8 panelists were recruited (2 male, 6 female). Panelists were trained in basic taste descriptive analysis. A sweetness reference series (intensity range 2-12) was provided to be used as cross-modality reference to aid in scaling the intensity of the cooling attribute present in the mouthwash samples. Panelists evaluated samples in duplicates and all sample were presented blinded and in a randomized order using a 3-digit code. Panelist evaluated 15 ml of mouthwash at a time and were instructed to rinse for 30 seconds and expectorate. Panelists were instructed to provide cooling intensities before and after expectoration. For the time before expectoration, evaluation started upon introducing the sample and every 10 seconds thereafter. After expectoration, the evaluation continued for 15 minutes and panelists provided cooling intensity ratings at predetermined times. Due to the unique nature of this product and the interest in prolonging the cooling attribute long after consumption, an additional parameter led was evaluated among samples via ANOVA. This parameter is the cooling intensity at time of extinction or in our case the end of evaluation. Data analysis for generation of T-I statistics and ANOVA analysis to determine significant difference among samples was performed using R STUDIO.

[2] = taste dilution tests; cited from earlier work
[3] = after expectoration for 15 minutes (Table 9b)
[4] = rinse phase 30 seconds (Table 9a)

Row | Compound | Iext (cooling intensity at end of evaluation) (trained panelists) | AUC (trained panelists; [3]) | I max (trained panelists; [3]) | Rdec (trained panelists; [3]) | Rinc (trained panelists; [3]) | Tmax (trained panelists; [3]) | Tstart (trained panelists; [3]) | AUC (trained panelists; [4]) | Imax (trained panelists; [4]) | Rdec (trained panelists; [4]) | Rinc (trained panelists; [4]) | Tstart (trained panelists; [4]) | further results
1 | CC(C)[C@@H]1CC[C@@H](C)C[C@H]1OC(=O)CN(C)C(C)C [Product 16, (1R,2S,5R)-2-Isopropyl-5-methylcyclohexyl 2-(isopropyl(methyl)amino)acetate] | 2.33^b | 5565.00^b | 13.37^ab | −0.01^b | 0.03^b | 32.73^a | 30.00^a | 180.91^a | 13.09^a | 0.00^b | 0.23^a | 10.00^a | organoleptic properties, EtOH ([1]; listed as XI-1-50): initial alcohol cooling burn with late onset cooling; also recorded: at 20 seconds and deep cooling at 60 seconds; organoleptic properties, PG ([1]; listed as XI-1-50): initial bitterness from PG cooling at 30 seconds; organoleptic properties (entry names no solvent) ([1]; listed as XI-1-50): slight delay in cooling after 20 seconds with some; also recorded: upfront bitterness coming from PG. Very intense; also recorded: building cooling post 50 seconds
2 | CCCCN(CCCC)CC(=O)O[C@@H]1C[C@H](C)CC[C@H]1C(C)C [Product 10, (1R,2S,5R)-2-Isopropyl-5-methylcyclohexyl 2-(dibutylamino)acetate] | 0.9^a | 4105.91^ac | 12.65^ab | −0.01^b | – | 30.00^a | 30.00^a | 182.05^a | 12.82^a | – | 0.18^b | 10.91^a | organoleptic properties, EtOH ([1]; listed as RK-2-10): delay onset mild cooling (post 20 seconds) with a; also recorded: slight tingling and sweetness that extended past 1; organoleptic properties, PG ([1]; listed as RK-2-10): Very low intensity of cooling that slowly builds with; also recorded: a skin tingling effect. Could be a good candidate; organoleptic properties (entry names no solvent) ([1]; listed as RK-2-10): exhibited a delayed onset cooling and an upfront; also recorded: bitterness from PG
3 | (1R,2S,5R)-2-Isopropyl-5-methylcyclohexyl 2-(isopropylamino)acetate [Product 7] | 1.23^a | 4344.50^ac | 12.33^ab | −0.01^b | 0.00^a | 36.00^a | 30.00^a | 170.50^a | 12.43^a | – | 0.20^a | 11.00^a | organoleptic properties, EtOH ([1]; listed as XI-1-60): cooling started at 20 seconds with slight alcohol; also recorded: burn, very intense cooling profile from 20 seconds; organoleptic properties, PG ([1]; listed as XI-1-60): Up front cooling at 10 seconds with stronger cooling; also recorded: at 20 seconds, much more intense cooling than XI-
4 | CC1CCC(C(C)C)C(O)C1 (stereo not shown) [Menthol, menthol] | 1^a | 3608.38^a | 12.01^a^ | −0.03^a | 0.00^a | 33.53^a | 30.00^a | 168.97^a | 12.56^a | −0.09^a | 0.21^a | 10.88^a | organoleptic properties of menthol ([1]; simple solutions of PG and water or ethanol): very strong, instantaneous cooling effect; cooling threshold [2]: 0.8 ppm
